Test results: US20230041743A1, “1,8-NAPHTHYRIDIN-2-ONE COMPOUNDS FOR THE TREATMENT OF AUTOIMMUNE DISEASE” (Hoffmann-La Roche Inc., priority 2019, published 2023)

Target: T1, human TLR8 (Homo sapiens, UniProt Q9NR97)
T1 construct: host or cells: HEK293 (HEK-Blue hTLR8)
T1 sequence (Q9NR97 27-1041): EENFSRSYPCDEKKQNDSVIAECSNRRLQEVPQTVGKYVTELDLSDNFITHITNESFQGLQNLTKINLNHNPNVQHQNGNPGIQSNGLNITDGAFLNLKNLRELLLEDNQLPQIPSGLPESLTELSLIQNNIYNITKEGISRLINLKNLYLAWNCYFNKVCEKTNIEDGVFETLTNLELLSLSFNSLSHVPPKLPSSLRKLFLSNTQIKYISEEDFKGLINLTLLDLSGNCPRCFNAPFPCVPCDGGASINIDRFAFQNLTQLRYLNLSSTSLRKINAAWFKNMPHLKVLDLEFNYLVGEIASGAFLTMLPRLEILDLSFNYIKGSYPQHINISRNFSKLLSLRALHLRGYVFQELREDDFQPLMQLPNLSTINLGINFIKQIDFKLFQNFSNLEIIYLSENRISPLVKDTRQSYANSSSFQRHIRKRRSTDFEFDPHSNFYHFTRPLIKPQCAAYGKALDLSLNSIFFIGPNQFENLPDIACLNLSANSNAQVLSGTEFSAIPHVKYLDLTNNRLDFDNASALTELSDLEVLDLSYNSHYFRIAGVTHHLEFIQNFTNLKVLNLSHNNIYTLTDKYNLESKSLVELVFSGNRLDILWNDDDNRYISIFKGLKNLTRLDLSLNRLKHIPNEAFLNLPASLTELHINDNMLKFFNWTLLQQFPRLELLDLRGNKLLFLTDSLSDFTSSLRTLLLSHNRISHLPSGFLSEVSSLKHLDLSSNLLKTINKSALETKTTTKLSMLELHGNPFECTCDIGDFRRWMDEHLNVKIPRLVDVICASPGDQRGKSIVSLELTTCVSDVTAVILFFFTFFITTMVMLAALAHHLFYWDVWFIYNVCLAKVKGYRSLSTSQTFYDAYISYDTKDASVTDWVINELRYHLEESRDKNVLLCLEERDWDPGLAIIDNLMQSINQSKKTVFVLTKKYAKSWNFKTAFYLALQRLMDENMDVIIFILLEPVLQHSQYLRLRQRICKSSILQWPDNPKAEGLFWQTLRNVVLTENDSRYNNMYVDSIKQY
Experiment: HEK293-Blue-hTLR-8 cells assay (SEAP reporter, R848 stimulation)
Assay type: cell-based
Settings: HEK293-Blue-hTLR8 cells, R848 ligand, 20 hrs incubation; read-out: HEK/hTLR8 IC50
Text: HEK293-Blue-hTLR-8 Cells Assay:
A stable HEK293-Blue-hTLR-8 cell line was purchased from InvivoGen (Cat. #: hkb-htlr8, San Diego, Calif., USA). These cells were originally designed for studying the stimulation of human TLR8 by monitoring the activation of NF-κB. A SEAP (secreted embryonic alkaline phosphatase) reporter gene was placed under the control of the IFN-β minimal promoter fused to five NF-κB and AP-1-binding sites. The SEAP was induced by activating NF-κB and AP-1 via stimulating HEK-Blue hTLR8 cells with TLR8 ligands. Therefore the reporter expression was declined by TLR8 antagonist under the stimulation of a ligand, such as R848, for incubation of 20 hrs. The cell culture supernatant SEAP reporter activity was determined using QUANTI-Blue™ kit (Cat. #: rep-qb1, Invivogen, San Diego, Ca, USA) at a wavelength of 640 nm, a detection medium that turns purple or blue in the presence of alkaline phosphatase.
HEK293-Blue-hTLR8 cells were incubated at a density of 250,000-450,000 cells/mL in a volume of 170 μL in a 96-well plate in Dulbecco's Modified Eagle's medium (DMEM) containing 4.5 g/L glucose, 50 U/mL penicillin, […], […], 2 mM L-glutamine, 10% (v/v) heat-inactivated fetal bovine serum with addition of 20 μL test compound in a serial dilution in the presence of final DMSO at 1% and 10 μL of 60 uM R848 in above DMEM, perform incubation under 37° C. in a CO2 incubator for 20 hrs. Then 20 μL of the supernatant from each well was incubated with 180 μL Quanti-blue substrate solution at 37° C. for 2 hrs and the absorbance was read at 620-655 nm using a spectrophotometer. The signaling pathway that TLR8 activation leads to downstream NF-κB activation has been widely accepted, and therefore similar reporter assay was modified for evaluating TLR8 antagonist.

IC50 [nM] | SMILES
2 | C[C@@H]1CN(c2cc(=O)n(C)c3ncccc23)C[C@@H]2c3ccc([C@H]4CC[C@H](N5CCOCC5)CC4)cc3CN12 [Example 27A, 4-[(4R,10bS)-4-methyl-8-(trans-4-morpholinocyclohexyl)-3,4,6,10b-tetrahydro-1H-pyrazino[2,1-a]isoindol-2-yl]-1-methyl-1,8-naphthyridin-2-one]
2.9 | C[C@@H]1CN(c2cc(=O)n(C)c3ncccc23)C[C@@H]2c3ccc(N4CC(C)(N)C4)cc3CN12 [Example 1, 4-[(4R,10bS)-8-(3-amino-3-methyl-azetidin-1-yl)-4-methyl-3,4,6,10b-tetrahydro-1H-pyrazino[2,1-a]isoindol-2-yl]-1-methyl-1,8-naphthyridin-2-one]
11.3 | C[C@@H]1CN(c2cc(=O)n(C)c3ncccc23)C[C@@H]2c3ccc(N4C[C@@H]5C[C@H]4CN5)cc3CN12 [Example 19, 4-[(4R,10bS)-8-[(1S,4S)-2,5-diazabicyclo[2.2.1]heptan-2-yl]-4-methyl-3,4,6,10b-tetrahydro-1H-pyrazino[2,1-a]isoindol-2-yl]-1-methyl-1,8-naphthyridin-2-one]
2.9 | C[C@@H]1CN(c2cc(=O)n(C)c3ncccc23)C[C@@H]2c3ccc(N4CC[C@@](C)(N)C4)cc3CN12 [Example 4, 4-[(4R,10bS)-8-[(3R)-3-amino-3-methyl-pyrrolidin-1-yl]-4-methyl-3,4,6,10b-tetrahydro-1H-pyrazino[2,1-a]isoindol-2-yl]-1-methyl-1,8-naphthyridin-2-one]
3.9 | C[C@@H]1CN(c2cc(=O)n(C)c3ncccc23)C[C@@H]2c3ccc(N4CCC[C@@H](N)C4)cc3CN12 [Example 16, 4-[(4R,10bS)-8-[(3R)-3-amino-1-piperidyl]-4-methyl-3,4,6,10b-tetrahydro-1H-pyrazino[2,1-a]isoindol-2-yl]-1-methyl-1,8-naphthyridin-2-one]
5.9 | C[C@@H]1CN(c2cc(=O)n(C)c3ncccc23)C[C@@H]2c3ccc(N4C[C@@H](N)[C@@H](F)C4)cc3CN12 [Example 7, 4-[(4R,10bS)-8-[(3R,4S)-3-amino-4-fluoro-pyrrolidin-1-yl]-4-methyl-3,4,6,10b-tetrahydro-1H-pyrazino[2,1-a]isoindol-2-yl]-1-methyl-1,8-naphthyridin-2-one]
11.5 | CO[C@@H]1CN(c2ccc3c(c2)CN2[C@H](C)CN(c4cc(=O)n(C)c5ncccc45)C[C@H]32)C[C@H]1N [Example 5, 4-[(4R,10bS)-8-[(3R,4R)-3-amino-4-methoxy-pyrrolidin-1-yl]-4-methyl-3,4,6,10b-tetrahydro-1H-pyrazino[2,1-a]isoindol-2-yl]-1-methyl-1,8-naphthyridin-2-one]
4.9 | C[C@@H]1CN(c2cc(=O)n(C)c3ncccc23)C[C@@H]2c3ccc(N4C[C@H]5NCCO[C@@H]5C4)cc3CN12 [Example 6, 4-[(4R,10bS)-8-[(4aR,7aR)-3,4,4a,5,7,7a-hexahydro-2H-pyrrolo[3,4-b][1,4]oxazin-6-yl]-4-methyl-3,4,6,10b-tetrahydro-1H-pyrazino[2,1-a]isoindol-2-yl]-1-methyl-1,8-naphthyridin-2-one]
< 0.3 | C[C@@H]1CNCCN1c1ccc2c(c1)CN1[C@H](C)CN(c3cc(=O)n(C)c4ncccc34)C[C@H]21 [Example 17, 4-[(4R,10bS)-4-methyl-8-[(2R)-2-methylpiperazin-1-yl]-3,4,6,10b-tetrahydro-1H-pyrazino[2,1-a]isoindol-2-yl]-1-methyl-1,8-naphthyridin-2-one]
7.3 | CO[C@H]1CN(c2ccc3c(c2)CN2[C@H](C)CN(c4cc(=O)n(C)c5ncccc45)C[C@H]32)CC[C@@H]1N [Example 8, 4-[(4R,10bS)-8-[(3S,4S)-4-amino-3-methoxy-1-piperidyl]-4-methyl-3,4,6,10b-tetrahydro-1H-pyrazino[2,1-a]isoindol-2-yl]-1-methyl-1,8-naphthyridin-2-one]
2.6 | C[C@@H]1CN(c2cc(=O)n(C)c3ncccc23)C[C@@H]2c3ccc(N4CC5(CNCCO5)C4)cc3CN12 [Example 3, 4-[(4R,10bS)-4-methyl-8-(5-oxa-2,8-diazaspiro[3.5]nonan-2-yl)-3,4,6,10b-tetrahydro-1H-pyrazino[2,1-a]isoindol-2-yl]-1-methyl-1,8-naphthyridin-2-one]
10 | C[C@@H]1CN(c2cc(=O)n(C)c3ncccc23)C[C@@H]2c3ccc([C@H]4CC[C@@H](N5CCOCC5)CC4)cc3CN12 [Example 27B, 4-[(4R,10bS)-4-methyl-8-(cis-4-morpholinocyclohexyl)-3,4,6,10b-tetrahydro-1H-pyrazino[2,1-a]isoindol-2-yl]-1-methyl-1,8-naphthyridin-2-one]
2.6 | C[C@@H]1CN(c2cc(=O)n(C)c3ncccc23)C[C@@H]2c3ccc(C4CCCNC4)cc3CN12 (stereo partly drawn) [Example 25, 4-[(4R,10bS)-4-methyl-8-(3-piperidyl)-3,4,6,10b-tetrahydro-1H-pyrazino[2,1-a]isoindol-2-yl]-1-methyl-1,8-naphthyridin-2-one]
1.7 | C[C@@H]1CN(c2cc(=O)n(C)c3ncccc23)C[C@@H]2c3ccc(N4CC5(CN(C)C5)C4)cc3CN12 [Example 2, 4-[(4R,10bS)-4-methyl-8-(6-methyl-2,6-diazaspiro[3.3]heptan-2-yl)-3,4,6,10b-tetrahydro-1H-pyrazino[2,1-a]isoindol-2-yl]-1-methyl-1,8-naphthyridin-2-one]
26.3 | CCn1c(=O)cc(N2C[C@@H](C)N3Cc4cc(N5C[C@@H](N)[C@H](OC)C5)ccc4[C@H]3C2)c2cccnc21 [Example 29, 4-[(4R,10bS)-8-[(3R,4R)-3-amino-4-methoxy-pyrrolidin-1-yl]-4-methyl-3,4,6,10b-tetrahydro-1H-pyrazino[2,1-a]isoindol-2-yl]-1-ethyl-1,8-naphthyridin-2-one]
0.8 | C[C@@H]1CN(c2cc(=O)n(C)c3ncccc23)C[C@@H]2c3ccc(N4CCNCC4)cc3CN12 [Example 12, 4-[(4R,10bS)-4-methyl-8-piperazin-1-yl-3,4,6,10b-tetrahydro-1H-pyrazino[2,1-a]isoindol-2-yl]-1-methyl-1,8-naphthyridin-2-one]
1.5 | CO[C@H]1CCN(c2ccc3c(c2)CN2[C@H](C)CN(c4cc(=O)n(C)c5ncccc45)C[C@H]32)C[C@@H]1N [Example 9, 4-[(4R,10bS)-8-[(3S,4S)-3-amino-4-methoxy-1-piperidyl]-4-methyl-3,4,6,10b-tetrahydro-1H-pyrazino[2,1-a]isoindol-2-yl]-1-methyl-1,8-naphthyridin-2-one]

SMILES | IC50 [nM]
C[C@@H]1CN(c2cc(=O)n(C)c3ncccc23)C[C@@H]2c3ccc(N4CC5CCC(C4)N5)cc3CN12 [Example 21, 4-[(4R,10bS)-8-(3,8-diazabicyclo[3.2.1]octan-3-yl)-4-methyl-3,4,6,10b-tetrahydro-1H-pyrazino[2,1-a]isoindol-2-yl]-1-methyl-1,8-naphthyridin-2-one] | 1.8
C[C@@H]1CN(c2cc(=O)n(C)c3ncccc23)C[C@@H]2c3ccc([C@H]4C[C@H]5COC[C@@H](C4)N5)cc3CN12 [Example 28A, 4-[(4R,10bS)-4-methyl-8-(endo-3-oxa-9-azabicyclo[3.3.1]nonan-7-yl)-3,4,6,10b-tetrahydro-1H-pyrazino[2,1-a]isoindol-2-yl]-1-methyl-1,8-naphthyridin-2-one] | 1.7
